# Experimental data as given in article PMC6010916, “Safety and pharmacokinetics of veliparib extended‐release in patients with advanced solid tumors: a phase I study” (Cancer Medicine, 2018).
# Test: Safety: treatment-emergent adverse events (NCI CTCAE version 4.0)
# Type: in vivo, human
# [1] = Cycle 1, Part 1, extension (n = 24)
# Description: Adverse event (AE) severity was assessed according to the National Cancer Institute Common Terminology Criteria for Adverse Events (NCI CTCAE) version 4.0. Tumor evaluations were performed at screening, every 8 weeks after the first administration of study drug, and at the final visit using radiographic measurements from computed tomography or magnetic resonance imaging. Objective tumor responses were evaluated using RECIST version 1.1 criteria. Patients who received one or more doses of veliparib were included in the PK and safety analyses, as well as for evaluation of time to disease progression (TTP). Patients with one or more measurable lesion at baseline were included in the analysis of objective responses.
compound,measurement,setting,value
C[C@]1(c2nc3c(C(N)=O)cccc3[nH]2)CCCN1 [veliparib],SAE leading to dose reduction,"All cycles, Part 3 (n = 12)",0 n (%)
same,TEAE: Abdominal pain,"All cycles, Part 3 (n = 12)",4 (33.3) n (%)
same,TEAE: Anemia,"All cycles, Part 3 (n = 12)",2 (16.7) n (%)
same,TEAE: Any AE,"All cycles, Part 3 (n = 12)",12 (100) n (%)
same,TEAE: At least possibly related to study drug,"All cycles, Part 3 (n = 12)",10 (83.3) n (%)
same,TEAE: Constipation,"All cycles, Part 3 (n = 12)",4 (33.3) n (%)
same,TEAE: Decreased appetite,"All cycles, Part 3 (n = 12)",2 (16.7) n (%)
same,TEAE: Diarrhea,"All cycles, Part 3 (n = 12)",6 (50.0) n (%)
same,TEAE: Fatigue,"All cycles, Part 3 (n = 12)",2 (16.7) n (%)
same,TEAE: NCI CTCAE grade 3 or 4,"All cycles, Part 3 (n = 12)",4 (33.3) n (%)
same,TEAE: Nausea,"All cycles, Part 3 (n = 12)",9 (75.0) n (%)
same,"TEAE: Nausea, Grade 1","All cycles, Part 3 (n = 12)",6 (50.0) n (%)
same,"TEAE: Nausea, Grade 2","All cycles, Part 3 (n = 12)",2 (16.7) n (%)
same,"TEAE: Nausea, Grade 3","All cycles, Part 3 (n = 12)",1 (8.3) n (%)
same,TEAE: Urinary tract infection,"All cycles, Part 3 (n = 12)",3 (25.0) n (%)
same,TEAE: Vomiting,"All cycles, Part 3 (n = 12)",7 (58.3) n (%)
same,"TEAE: Vomiting, Grade 1","All cycles, Part 3 (n = 12)",4 (33.3) n (%)
same,"TEAE: Vomiting, Grade 2","All cycles, Part 3 (n = 12)",2 (16.7) n (%)
same,"TEAE: Vomiting, Grade 3","All cycles, Part 3 (n = 12)",1 (8.3) n (%)
same,Any SAE,"Cycle 1, All patients (N = 71)",10 (14.1) n (%)
same,SAE leading to discontinuation,"Cycle 1, All patients (N = 71)",4 (5.6) n (%)
same,SAE leading to dose interruption,"Cycle 1, All patients (N = 71)",6 (8.5) n (%)
same,SAE leading to dose reduction,"Cycle 1, All patients (N = 71)",1 (1.4) n (%)
same,TEAE: Any AE,"Cycle 1, All patients (N = 71)",67 (94.4) n (%)
same,TEAE: At least possibly related to study drug,"Cycle 1, All patients (N = 71)",50 (70.4) n (%)
same,TEAE: NCI CTCAE grade 3 or 4,"Cycle 1, All patients (N = 71)",13 (18.3) n (%)
same,Any SAE,[1],4 (16.7) n (%)
same,SAE leading to discontinuation,[1],3 (12.5) n (%)
same,SAE leading to dose interruption,[1],2 (8.3) n (%)
same,SAE leading to dose reduction,[1],0 n (%)
same,TEAE: Any AE,[1],23 (95.8) n (%)
same,TEAE: At least possibly related to study drug,[1],14 (58.3) n (%)
same,TEAE: NCI CTCAE grade 3 or 4,[1],4 (16.7) n (%)
same,Any SAE,"Cycle 1, Part 2 (n = 35)",5 (14.3) n (%)
same,SAE leading to discontinuation,"Cycle 1, Part 2 (n = 35)",1 (2.9) n (%)
same,SAE leading to dose interruption,"Cycle 1, Part 2 (n = 35)",3 (8.6) n (%)
same,SAE leading to dose reduction,"Cycle 1, Part 2 (n = 35)",1 (2.9) n (%)
same,TEAE: Any AE,"Cycle 1, Part 2 (n = 35)",34 (97.1) n (%)
same,TEAE: At least possibly related to study drug,"Cycle 1, Part 2 (n = 35)",29 (82.9) n (%)
same,TEAE: NCI CTCAE grade 3 or 4,"Cycle 1, Part 2 (n = 35)",8 (22.9) n (%)
same,Any SAE,"Cycle 1, Part 3 (n = 12)",1 (8.3) n (%)
same,SAE leading to discontinuation,"Cycle 1, Part 3 (n = 12)",0 n (%)
same,SAE leading to dose interruption,"Cycle 1, Part 3 (n = 12)",1 (8.3) n (%)
same,SAE leading to dose reduction,"Cycle 1, Part 3 (n = 12)",0 n (%)
same,TEAE: Any AE,"Cycle 1, Part 3 (n = 12)",10 (83.3) n (%)
same,TEAE: At least possibly related to study drug,"Cycle 1, Part 3 (n = 12)",7 (58.3) n (%)
same,TEAE: NCI CTCAE grade 3 or 4,"Cycle 1, Part 3 (n = 12)",1 (8.3) n (%)
same,Any SAE,"Part 1, PK BA portion (n = 24)",2 (8.3) n (%)
same,SAE leading to discontinuation,"Part 1, PK BA portion (n = 24)",0 n (%)
same,SAE leading to dose interruption,"Part 1, PK BA portion (n = 24)",1 (4.2) n (%)
same,SAE leading to dose reduction,"Part 1, PK BA portion (n = 24)",0 n (%)
same,TEAE: Any AE,"Part 1, PK BA portion (n = 24)",17 (70.8) n (%)
same,TEAE: At least possibly related to study drug,"Part 1, PK BA portion (n = 24)",7 (29.2) n (%)
same,TEAE: NCI CTCAE grade 3 or 4,"Part 1, PK BA portion (n = 24)",2 (8.3) n (%)
same,TEAE: Abdominal pain,"Part 1, PK phase (n = 24)",3 (12.5) n (%)
same,TEAE: Anemia,"Part 1, PK phase (n = 24)",1 (4.2) n (%)
same,TEAE: Constipation,"Part 1, PK phase (n = 24)",0 n (%)
same,TEAE: Decreased appetite,"Part 1, PK phase (n = 24)",1 (4.2) n (%)
same,TEAE: Diarrhea,"Part 1, PK phase (n = 24)",2 (8.3) n (%)
same,TEAE: Fatigue,"Part 1, PK phase (n = 24)",0 n (%)
same,TEAE: Nausea,"Part 1, PK phase (n = 24)",4 (16.7) n (%)
same,"TEAE: Nausea, Grade 1","Part 1, PK phase (n = 24)",4 (16.7) n (%)
same,"TEAE: Nausea, Grade 2","Part 1, PK phase (n = 24)",0 n (%)
same,"TEAE: Nausea, Grade 3","Part 1, PK phase (n = 24)",0 n (%)
same,TEAE: Urinary tract infection,"Part 1, PK phase (n = 24)",0 n (%)
same,TEAE: Vomiting,"Part 1, PK phase (n = 24)",1 (4.2) n (%)
same,"TEAE: Vomiting, Grade 1","Part 1, PK phase (n = 24)",1 (4.2) n (%)
same,"TEAE: Vomiting, Grade 2","Part 1, PK phase (n = 24)",0 n (%)
same,"TEAE: Vomiting, Grade 3","Part 1, PK phase (n = 24)",0 n (%)
same,"grade 3 or 4 treatment-related anemia, patients",Part 1 extension/Part 2/Part 3,0/3/0
same,"grade 3 or 4 treatment-related nausea, patients",Part 1 extension/Part 2/Part 3,0/2/1
same,"grade 3 or 4 treatment-related thrombocytopenia, patients",Part 1 extension/Part 2/Part 3,2/3/0
same,TEAE: Abdominal pain,Total (N = 71),17 (23.9) n (%)
same,TEAE: Constipation,Total (N = 71),23 (32.4) n (%)
same,TEAE: Decreased appetite,Total (N = 71),15 (21.1) n (%)
same,TEAE: Diarrhea,Total (N = 71),23 (32.4) n (%)
same,TEAE: Fatigue,Total (N = 71),23 (32.4) n (%)
same,TEAE: Nausea,Total (N = 71),56 (78.9) n (%)
same,"TEAE: Nausea, Grade 1",Total (N = 71),45 (63.4) n (%)
same,"TEAE: Nausea, Grade 2",Total (N = 71),10 (14.1) n (%)
same,"TEAE: Nausea, Grade 3",Total (N = 71),3 (4.2) n (%)
same,TEAE: Urinary tract infection,Total (N = 71),15 (21.1) n (%)
same,TEAE: Vomiting,Total (N = 71),36 (50.7) n (%)
same,"TEAE: Vomiting, Grade 1",Total (N = 71),29 (40.8) n (%)
same,"TEAE: Vomiting, Grade 2",Total (N = 71),5 (7.0) n (%)
same,"TEAE: Vomiting, Grade 3",Total (N = 71),2 (2.8) n (%)
same,patients who experienced one or more TEAE,"all cycles, 71 patients",98.6%
same,patients with Grade 3 or 4 TEAEs,"all cycles, 71 patients",39.4%
same,patients who experienced one or more TEAE,"cycle 1, 71 patients",94.4%
same,patients with Grade 3 or 4 TEAEs,"cycle 1, 71 patients",18.3%
same,grade 3 or 4 treatment-related anemia,overall,4.2%
same,grade 3 or 4 treatment-related nausea,overall,4.2%
same,grade 3 or 4 treatment-related thrombocytopenia,overall,7.0%
same,"TEAE constipation, frequency","overall, 71 patients",32.4%
same,"TEAE diarrhea, frequency","overall, 71 patients",32.4%
same,"TEAE fatigue, frequency","overall, 71 patients",32.4%
same,"TEAE nausea, frequency","overall, 71 patients",78.9%
same,"TEAE vomiting, frequency","overall, 71 patients",50.7%
